Assay results taken from PubChem BioAssay AID588845 (Broad Institute, 2011).
Active and inactive are the calls of the source. How the calls were made is not given here.

Key:
[1] = cytotoxicity toward TWIST-knockdown HMLE cells – cell-based, CellTiter-Glo luminescence, dry powder, set 2, confirmation (AID 588845); details: HMLE_shTWIST viability, CellTiter-Glo luminescence, 72 h; at 32 µM (top of the series)
[2] = system: HMLE_shTWIST viability, CellTiter-Glo luminescence, 72 h; experiment: as above

| Compound | viability fraction [1] | AC50 [2] [µM] |
| --- | --- | --- |
| CC(C)c1ccc(/C=C/C(=O)NC2=NCCS2)cc1 | 8.35% (inactive) | – |
| Cc1csc(NC(=O)c2ccc(COc3ccccc3F)o2)n1 | – | 0.13 |
| COc1ccc(/C=C/C(=O)NC2=NCCS2)c(OC)c1 | 58.2% (inactive) | – |
| Cc1csc(NC(=O)c2ccc(COc3cccc(Cl)c3)o2)n1 | – | 4.3 |
| Cc1csc(NC(=O)c2ccc(COc3ccccc3)o2)n1 | – | 18.2 |
| O=C(/C=C/c1ccc(-c2ccccc2)cc1)NC1=NCCS1 | 81.4% (inactive) | – |
| Cc1csc(NC(=O)c2ccc(COc3cccc(F)c3)o2)n1 | – | 1.7 |
| CCc1ccc(/C=C/C(=O)NC2=NCCS2)cc1 | – | 11.7 |
| O=C(/C=C/c1ccc(Cl)c(Cl)c1)NC1=NCCS1 | 71.5% (inactive) | – |
